# From US11007162B2, “Methods of reducing small, dense LDL particles” (CymaBay Therapeutics, Inc., priority 2008, dated 2021)
# Legend:
# [1] = test system: overweight subjects; test: Second clinical study: LDL particle size pattern and blood chemistry in overweight subjects; assay type: in vivo, human
# Procedure: A second clinical study to determine the effect of the Compound of Formula II on LDL particle size in overweight subjects was performed. Subjects in this study met the following criteria: Non-Diabetic; untreated or diet-treated, with fasting lipids at initial screening and visit 2 (after 4 week run-in): […] Subjects were males with waist circumference greater than 38″ or females with waist circumference greater than 33″. Data was generated in this second study from 181 subjects. […] Of the 28 subjects that remained in the study in the placebo group, there was a net loss of subjects having LDL pattern A.
# [2] = test system: C57BL/6 mice; test: Intestinal cholesterol absorption by fecal dual isotope ratio method; assay type: in vivo
# Procedure: This study was designed to examine the effect of Compound II on intestinal cholesterol absorption in mice using the fecal dual isotope ratio method. Eight-week-old male C57BL/6 mice were fed standard mouse chow (control) with no added cholesterol (Harlan Teklad diet T.8604) ad libitum. Mice were randomized into five groups: 1) control, water gavaged daily; 2) compound II gavaged daily (in water) at a dose of 3 mg/kg; 3) compound II gavaged daily (in water) at a dose of 10 mg/kg; 4) ezetimibe gavaged daily (in corn oil) at a dose of 5 mg/kg; 5) compound II fed daily as diet admix at a dose of approximately 15 mg/kg. Mice were housed individually and monitored daily for food consumption and body weight. Following eight days of feeding/drug administration, (and 1 hour following gavage of drug), nonfasted, unanesthetized animals were bled and plasma was isolated and flash-frozen at −80° C. for shipment and measurement of concentrations of Compound II and its metabolites. The following day (day 9), mice were gavaged with drug or control. One hour later, each mouse was gavaged with MCT oil containing [^14C]cholesterol and [^3H]sitostanol. Mice were housed individually in metabolic cages and ad libitum feeding and daily gavage of each drug was continued. Feces were collected daily from each animal for a period of 4 days. For each individual mouse, the 4-day feces were pooled, dried, saponified, extracted and counted.
# Intestinal cholesterol absorption in age- and gender-matched C57BL/6 mice was determined by the fecal dual isotope ratio method. […] See, FIG. 10. […] Statistical analysis between groups was assessed by unpaired Student's t-test. Statistical significance was defined as a two-tailed probability of less than 0.05.
# [3] = test system: human subjects; test: Effect on cholesterol synthesis in human subjects after 21 days; assay type: in vivo
# Procedure: A series of experiments were performed to determine the effect of Compound II on cholesterol synthesis. Compound II was administered to human subjects and the effect on cholesterol ester, acyl-coenzyme A:cholesterol acyltransferase (ACAT) and Lecithin-cholesterol acyltransferase (LACAT) was determined after 21 days. […] The effect of treatment appeared similar between ACAT- and LCAT-derived cholesterol esters, indicating a reduction in cholesterol substrate.
# [4] = test system: healthy male subjects; test: Phase I multiple ascending dose study, 21 days; LDL particle size by GGE and AIM; assay type: in vivo, human; conditions: for predominant LDL particle size / proportion of small LDL particles: 50, 100 and 200 mg
# Procedure: Thirty-six healthy male subjects were treated with the compound of Formula II at 50, 100, and 200 mg for 21 days. To determine the lipoprotein particle sizes in the subjects before and after administration of the compound, gradient-gel electrophoresis (GGE) and Airborne Ion Mobility (AIM) methods were used.
# GGE was performed essentially as described in Krauss and Burke, J Lipid Res. 23:97-104 (1982) and La Belle, et al., J. Lipid Res. 38 690-700 (1997) as follows:
# LDL particle diameters were determined by nondenaturing 2-14% polyacrylamide gradient gel electrophoresis in 0.09 M Tris/0.08 M borate buffer (pH 8.3), 3 mM EDTA at 8-10° C. Samples (whole plasma) were electrophoresed at 40 V for 15 min, then 80 V for 15 min, and then at 125 V for 24 h to allow all particles to run to their size exclusion limits. Gels were stained for protein with Sudan Black and scanned at 555 nm with a Transidyne RFT densitometer. Particle sizes were calculated from a calibration curve using a high molecular weight reference protyin mixture (Pharmacia Biotech., Piscataway, N.J.), 380 Å latex beads (Duke Scientific Corp., Palo Alto, Calif.) and lipoprotein calibrators that are frozen at −80° C. and included on each gel run. Plasma samples, stored at −80° C. and used as controls for gradient gel analysis procedures, were run in duplicate on each gel. Particle size of LDL peaks in the controls were measured within ±2 Å (coefficient of variation, +1%).
# AIM was performed essentially as described in Caulfield, et al., Clin. Chem. 54:1307-1316 (2008), generally as follows:
# Serum samples or controls were briefly mixed by vortex mixing, then 5 μl of sample or control was mixed with 20 μl of an albumin removal reagent [7.5 g/L Reactive green 19 dextran (RGD), Sigma-Aldrich; 2.5 g/L dextran sulfate, Sigma-Aldrich; and 0.5 g/L EDTA, Spectrum Chemicals] and incubated on ice for 15 minutes. After incubation, the sample mixture was overlaid on 200 μl deuterium oxide (Medical Isotopes) in a 42.2 ultracentrifuge tube (Beckman Coulter). The samples were ultracentrifuged at 10° C. for 135 min at 223 000 g (42 000 rpm), and then the top 85 μl (i.e., the lipid fraction) of the sample was removed. The samples were diluted 1:800 for HDL analysis using 25 mmol/L ammonium acetate, 0.5 mmol/L ammonium hydroxide, pH 7.4. For LDL analysis, samples were diluted 1:200 with the same diluent containing 5 μg/mL dextran sulfate to help prevent LDL particles from sticking to the capillary surfaces. Final dilutions were made in deep-well 96-well plates and placed in a Leap HTLC Pal autosampler (Eksigent) with the cooled stack maintained at 6° C.
# The autosampler was connected to the electrospray generator (Model 3480; TSI) via methyl-deactivated silica capillary (50 μm i.d.; SGE). Flow was introduced by nano-LC pumps (Eksigent) running a mobile phase of 25 mmol/L ammonium acetate, 0.5 mmol/L ammonium hydroxide, pH 7.4. By means of a capillary metal union (Upchurch Scientific), an autosampler injected 10 μl sample at 6 μl/min into a transfer capillary (methyl-deactivated, SGE, 50 μm, 33 cm long). High voltage (2.1 kV) was applied to the metal capillary union located 33 cm upstream of the electrospray unit. The electrospray Taylor cone was monitored visually and amperometrically to ensure stability. After the sample had filled the capillary and reached the electrospray chamber, the flow was decreased to 200 nL/min and the data recording process was started. The gas (containing approximately 5% CO2) flowing into the electrospray chamber was regulated at 1.6 L/min. The electrosprayed particles passed through a particle-charge neutralizing chamber and then entered the differential mobility analyzer (DMA). Se, e.g., U.S. Pat. No. 7,259,018. Scan time was 2 min and covered a particle range of 17.2 to 542.0 Å. […]
# [5] = test system: human subjects; test: Absorption of phytosterols (markers of cholesterol absorption) in human subjects, day 21; assay type: in vivo; conditions: oral daily dose, day 21, FIG. 11
# Procedure: In another experiment, human subjects received an oral dose of Compound II at day 1 and daily thereafter and the effect of the drug was assessed on day 21. Phytosterols are poorly absorbed from diet, but are absorbed proportionally with dietary cholesterol and thus serve as good markers of cholesterol absorption.
# [6] = Atorvastatin 20 mg, Week 0 (before treatment)
# [7] = MBX-8025 50 mg, Week 0 (before treatment)
# [8] = MBX-8025 100 mg, Week 0 (before treatment)
# [9] = 21 days, listed as compound of Formula II
# [10] = phase I multiple ascending doses samples, FIG. 1
smiles,measurement,setting,value
"CC(C)c1c(C(=O)Nc2ccccc2)c(-c2ccccc2)c(-c2ccc(F)cc2)n1CC[C@@H](O)C[C@@H](O)CC(=O)O [Atorvastatin, reference compound]",number of subjects having LDL Pattern A,[1]; [6],9
same,number of subjects having LDL Pattern B,[1]; [6],15
same,number of subjects having LDL Pattern I,[1]; [6],5
same,number of subjects having LDL Pattern A,"[1]; Atorvastatin 20 mg, Week 4",12
same,number of subjects having LDL Pattern B,"[1]; Atorvastatin 20 mg, Week 4",10
same,number of subjects having LDL Pattern I,"[1]; Atorvastatin 20 mg, Week 4",6
same,number of subjects having LDL Pattern A,"[1]; Atorvastatin 20 mg, Week 8",13
same,number of subjects having LDL Pattern B,"[1]; Atorvastatin 20 mg, Week 8",13
same,number of subjects having LDL Pattern I,"[1]; Atorvastatin 20 mg, Week 8",3
same,HDL levels,[1]; FIG. 6,no effect
CCOC(COc1ccc(C(F)(F)F)cc1)CSc1ccc(OCC(=O)O)c(C)c1 (centres unmarked) [Compound II],reduction in cholesterol absorption versus control (printed as negative change),"[2]; admix to diet, approximate dose 15 mg/kg/d, p<0.0006",−45%
same,change in cholesterol absorption versus control,"[2]; gavage, 3 mg/kg/d, no significant change",−8%
same,reduction in cholesterol absorption versus control,"[2]; gavage, 10 mg/kg/d, significant",29.4%
same,LDL pattern results compared with control group treated with Atorvastatin,[1]; 50 mg and 100 mg,superior
same,number of subjects having pattern A (in words),[1]; 100 mg,increase
same,number of subjects having pattern B (in words),[1]; 100 mg,large decrease
same,Apo B-100,[1]; FIG. 6,reduced
same,HDL levels,[1]; FIG. 6,increased
same,LDL,[1]; FIG. 6,reduced
same,total cholesterol,[1]; FIG. 6,reduced
same,triglycerides,[1]; FIG. 6,reduced
same,percentage of individuals having LDL pattern A over time,[1]; FIG. 7,went up dramatically
same,percentage of individuals having LDL pattern B over time,[1]; FIG. 8,went down dramatically
same,number of subjects having LDL Pattern A,[1]; [7],8
same,number of subjects having LDL Pattern B,[1]; [7],13
same,number of subjects having LDL Pattern I,[1]; [7],7
same,number of subjects having LDL Pattern A,"[1]; MBX-8025 50 mg, Week 4",24
same,number of subjects having LDL Pattern B,"[1]; MBX-8025 50 mg, Week 4",3
same,number of subjects having LDL Pattern I,"[1]; MBX-8025 50 mg, Week 4",0
same,number of subjects having LDL Pattern A,"[1]; MBX-8025 50 mg, Week 8",25
same,number of subjects having LDL Pattern B,"[1]; MBX-8025 50 mg, Week 8",2
same,number of subjects having LDL Pattern I,"[1]; MBX-8025 50 mg, Week 8",2
same,number of subjects having LDL Pattern A,[1]; [8],6
same,number of subjects having LDL Pattern B,[1]; [8],20
same,number of subjects having LDL Pattern I,[1]; [8],7
same,number of subjects having LDL Pattern A,"[1]; MBX-8025 100 mg, Week 4",25
same,number of subjects having LDL Pattern B,"[1]; MBX-8025 100 mg, Week 4",1
same,number of subjects having LDL Pattern I,"[1]; MBX-8025 100 mg, Week 4",4
same,number of subjects having LDL Pattern A,"[1]; MBX-8025 100 mg, Week 8",25
same,number of subjects having LDL Pattern B,"[1]; MBX-8025 100 mg, Week 8",2
same,number of subjects having LDL Pattern I,"[1]; MBX-8025 100 mg, Week 8",2
same,Lanosterol (cholesterol synthesis intermediate) in blood,[3]; FIG. 9,decreased in a dose-dependent fashion
same,desmosterol (cholesterol synthesis intermediate) in blood,[3]; FIG. 9,decreased in a dose-dependent fashion
same,lathosterol (cholesterol synthesis intermediate) in blood,[3]; FIG. 9,decreased in a dose-dependent fashion
same,cholesterol concentrations (ACAT- and LCAT-derived cholesterol esters),[3]; after 21 days,decreased cholesterol concentrations in a dose-dependent fashion
same,shift of LDL subclass pattern,"[4]; 50, 100 and 200 mg dosage, day 21 vs day 1, GGE",from LDL Pattern B or I to LDL Pattern A
same,predominant LDL particle size,"[4]; 21 days, listed as compound II",increased
same,proportion of small LDL particles,"[4]; 21 days, listed as compound II",lowered
same,predominant LDL particle size,[4]; [9],effectively increased
same,proportion of small LDL particles,[4]; [9],decreasing the amount of smaller LDL particles
same,predominant LDL particle size,"[4]; 21 days, listed as drawing 12",effective in improving
same,VLDL particle size,[4]; 21 days,did not affect
same,LDL particle distributions,"[4]; 21 days, by dose",did affect LDL particle distributions in dose dependent fashion
same,Apolipoprotein B,[4]; [10],significantly lowered
same,LDL-cholesterol,[4]; [10],significantly lowered
same,Stigmasterol,[5],not significantly affected
same,campesterol,[5],significantly decreased
same,β-sitosterol,[5],significantly decreased
"O=C1[C@H](CC[C@H](O)c2ccc(F)cc2)[C@@H](c2ccc(O)cc2)N1c1ccc(F)cc1 [ezetimibe, reference compound]",reduction in cholesterol absorption,"[2]; gavage in corn oil, 5 mg/kg/d, positive control, p<0.0000005",56.4%
